Measured values: PubChem BioAssay (NCI)
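Values below derive from 48-hour exposures of cells grown in 96-well plates, with endpoints linearly interpolated between the two concentrations bracketing the appropriate inhibition level. GI50 = concentration required for 50% inhibition of growth. TGI marks complete inhibition of growth.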

Tests used:
Experiment in all cases: growth of human tumour cells (NCI), 48 h
U251 CNS = system: U251 CNS
A498 renal = system: A498 renal
KM12 colon = system: KM12 colon
LOX IMVI melanoma = system: LOX IMVI melanoma
HL-60(TB) leukemia = system: HL-60(TB) leukemia
M14 melanoma = system: M14 melanoma
SF-268 CNS = system: SF-268 CNS
SK-MEL-28 melanoma = system: SK-MEL-28 melanoma
NCI/ADR-RES ovarian = system: NCI/ADR-RES ovarian
MCF7 breast = system: MCF7 breast

Row | Compound | TGI (U251 CNS) | TGI (A498 renal) | TGI (KM12 colon) | TGI (LOX IMVI melanoma) | TGI (HL-60(TB) leukemia) | TGI (M14 melanoma) | TGI (SF-268 CNS) | TGI (SK-MEL-28 melanoma) | GI50 (NCI/ADR-RES ovarian) | TGI (NCI/ADR-RES ovarian) | GI50 (U251 CNS) | GI50 (KM12 colon) | GI50 (LOX IMVI melanoma) | GI50 (M14 melanoma) | GI50 (SK-MEL-28 melanoma) | GI50 (SF-268 CNS) | GI50 (MCF7 breast) | TGI (MCF7 breast) | GI50 (A498 renal) | GI50 (HL-60(TB) leukemia)
1 | Cc1ccc(NC(=O)CCC(=O)C(C#N)c2ccccc2)cc1C (configuration not stated) | > 100 µM | > 100 µM | > 100 µM | > 100 µM | > 100 µM | > 100 µM | > 100 µM |  |  |  |  |  |  |  |  |  |  |  |  | 
2 | C[n+]1c(N)n(C(=O)OCc2ccccc2)c(=O)c2c1ncn2C(=O)OCc1ccccc1 | > 100 µM | > 100 µM | > 100 µM | > 100 µM | > 100 µM | > 100 µM | > 100 µM | > 100 µM |  |  |  |  |  |  |  |  |  |  |  | 
3 | NCP(=O)(O)OCC(=O)O | > 100 µM | > 100 µM | > 100 µM | > 100 µM | > 100 µM | > 100 µM | > 100 µM | > 100 µM |  |  |  |  |  |  |  |  |  |  |  | 
4 | COc1ccc2c(c1)OCCC1=C2SCC2(C)CCN=C12 (configuration not stated) | > 100 µM |  | > 100 µM | > 100 µM | > 100 µM | > 100 µM | > 100 µM | > 100 µM |  |  |  |  |  |  |  |  |  |  |  | 
5 | O=C(/C(=C/c1ccccc1)c1ccccc1)N1c2ccccc2CC1c1c[nH]c2ccccc12 (configuration not stated) | > 100 µM | > 100 µM | > 100 µM | > 100 µM | > 100 µM | > 100 µM |  | > 100 µM |  |  |  |  |  |  |  |  |  |  |  | 
6 | COC(=O)Cc1nc2ccccc2o1 | > 100 µM | > 100 µM | > 100 µM |  | 41.4 µM | > 100 µM | > 100 µM | > 100 µM |  |  |  |  |  |  |  |  |  |  |  | 
7 | CN(C)CC1CCCC/C1=N/OC(=O)c1ccc(Cl)c(Cl)c1 (configuration not stated) | > 100 µM | > 100 µM | > 100 µM | > 100 µM | > 100 µM | > 100 µM | > 100 µM | > 100 µM |  |  |  |  |  |  |  |  |  |  |  | 
8 | CCOC(=O)/N=c1/nc(N(C)C)ss1 | > 100 µM | > 100 µM | > 100 µM |  | > 100 µM | > 100 µM | > 100 µM | > 100 µM |  |  |  |  |  |  |  |  |  |  |  | 
9 | NS(=O)(=O)c1ccc(NC(=O)COC(=O)c2cccc3c(=O)c4ccccc4[nH]c23)cc1 | 28.1 µM | 51.8 µM | > 85.5 µM | 43 µM | > 100 µM | > 100 µM | 36.9 µM | > 100 µM |  |  |  |  |  |  |  |  |  |  |  | 
10 | COc1ccc(/C=N/N=C(\[O-])c2ccncc2)cc1F.COc1ccc(/C=N\N=C(/[O-])c2ccncc2)cc1F.[Cu+2] | 35.8 µM |  | 39 µM | > 100 µM |  | > 100 µM | 86.3 µM | > 100 µM | 13.4 µM | 28.8 µM | 19.4 µM | 16.2 µM | 68.8 µM | 47.2 µM | 37.9 µM | 25.9 µM | 17.9 µM | 35 µM |  | 
11 | COc1ccc(C(=O)O/N=C2/CCC/C2=C\c2ccccc2)cc1 | > 100 µM | > 100 µM | > 100 µM | > 100 µM | > 100 µM | > 100 µM | > 100 µM | > 100 µM |  |  |  |  |  |  |  |  |  |  |  | 
12 | C#Cc1cc2c(N)c(C(=O)c3cc(OC)c(OC)c(OC)c3)[nH]c2cc1OC | > 100 µM | 16.9 µM | > 100 µM | > 100 µM |  | > 100 µM | > 100 µM | > 100 µM |  |  | 0.691 µM | 0.412 µM | 0.656 µM | 0.521 µM | 19.3 µM | 14.1 µM | 0.325 µM | > 100 µM | 0.487 µM | 
13 | CN(C)CCNc1nc2ccccc2c2c(=O)c3ccccc3sc12 | 6.01 µM |  | 3.72 µM | 2.8 µM | 4.21 µM | 3.62 µM | 8.82 µM | 3.98 µM | 1.96 µM | 6.43 µM | 2.25 µM | 1.71 µM | 1.37 µM | 1.86 µM | 2.08 µM | 2.1 µM | 1.37 µM | 3.05 µM |  | 1.82 µM
14 | Cn1ccnc1C[N-]Cc1nccn1C.O=[N+]([O-])[O-].O=[N+]([O-])[O-].[Cu+2] | > 100 µM |  | > 100 µM | > 100 µM | > 100 µM | > 100 µM | > 100 µM | > 100 µM |  |  | > 100 µM | > 100 µM | > 100 µM | > 100 µM | > 100 µM | > 100 µM |  |  |  | > 100 µM
15 | CCc1nc(-n2c(-c3ccccc3)nc3ccccc3c2=O)nc(N)c1-c1ccc(Cl)cc1 | > 100 µM | 92.7 µM | > 100 µM | > 100 µM |  | > 100 µM | > 100 µM | > 100 µM |  |  | 9.19 µM | 26.6 µM | 3.94 µM | 6.22 µM | > 100 µM | 73.2 µM | 80.7 µM | > 100 µM | 25 µM | 
16 | CO[C@H](C(=O)O)[C@@H]1Cc2cc3cc(OC4CC(OC5CC(O)C(O)C(C)O5)C(O)C(C)O4)c(C)c(O)c3c(O)c2C(=O)[C@H]1OC1CC(OC2CC(OC3CC(C)(O)C(O)C(C)O3)C(O)C(C)O2)C(O)C(C)O1 (some centres not stated) | > 32.5 µM | 0.773 µM | 2.59 µM | 1.48 µM | > 32.5 µM | 3.59 µM | > 32.5 µM | 1.99 µM | 10.1 µM | > 32.5 µM | 0.212 µM | 0.233 µM | 0.114 µM | 0.443 µM | 0.191 µM | 0.283 µM |  |  | 0.135 µM | 1.06 µM
17 | COc1ccc2nc3cccc(C(=O)NCCN(C)C)c3nc2c1 | 11.3 µM | 3.34 µM | 9.82 µM | 2.45 µM | 4.89 µM |  |  | 4.88 µM |  |  |  |  |  |  |  |  |  |  |  | 
18 | Cc1cc(O)c(C(c2ccncc2)c2c(O)cc(C)[nH]c2=O)c(=O)[nH]1 | > 100 µM |  | > 100 µM | > 100 µM | > 100 µM | > 100 µM | > 100 µM | > 100 µM |  | > 100 µM |  |  |  |  |  |  |  | > 100 µM |  | 
19 | CN(C)CCNc1nc(-c2cccs2)cc(-c2cccs2)n1 | 24.4 µM | 25.4 µM | 28.5 µM | 22.7 µM |  | 27 µM |  | 30 µM |  |  |  |  |  |  |  |  |  |  |  | 
20 | COc1ccc(C2=NOP(c3ccccc3)(c3ccccc3)(c3ccccc3)C2)cc1 | > 93.1 µM | 89.7 µM | > 100 µM | 27.1 µM | 14 µM | 41.9 µM | > 100 µM | > 100 µM |  |  |  |  |  |  |  |  |  |  |  | 
